Results as given in the supplement of paper PMC10307832.

Assays:
Test in all cases: relative viability (nuclei count vs DMSO), 5 days (fraction); higher = more cells survive
PC-14 = tested on: PC-14
Procedure, shortened: (§1)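 After 5 days of treatment, lung cancer cells in 1536-well plates were fixed and stained in a single step (final 0.05% Triton X-100, 1% formaldehyde, 1 ug/ml Hoechst) and their nuclei counted on 4× images. Treatment had been applied by pin tool the day after seeding as one drug alone or as a fixed anchor-drug dose with five library-drug doses (not always all listed) in √10 steps. Relative viability is the nuclei count of treated wells divided by that of vehicle wells, and values are medians of duplicate plates.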

NCI-H1734 = tested on: NCI-H1734
Procedure, shortened: as §1

COR-L23 = tested on: COR-L23
Procedure, shortened: as §1

SW 1573 = tested on: SW 1573
Procedure, shortened: as §1

NCI-H1355 = tested on: NCI-H1355
Procedure, shortened: as §1

NCI-H661 = tested on: NCI-H661
Procedure, shortened: as §1

NCI-H322M = tested on: NCI-H322M
Procedure, shortened: as §1

H3255 = tested on: H3255
Procedure, shortened: as §1

ABC-1 = tested on: ABC-1
Procedure, shortened: as §1

NCI-H2405 = tested on: NCI-H2405
Procedure, shortened: as §1

NCI-H2228 = tested on: NCI-H2228
Procedure, shortened: as §1

## NC(=O)Nc1cc(-c2cccc(F)c2)sc1C(=O)N[C@H]1CCCNC1 [AZD7762] + CS(=O)(=O)CCNCc1ccc(-c2ccc3ncnc(Nc4ccc(OCc5cccc(F)c5)c(Cl)c4)c3c2)o1 [Lapatinib] (partner 2 µM)
PC-14; first compound 0.01 µM
  relative viability: 0.345
PC-14; first compound 0.03162 µM
  relative viability: 0.305
PC-14; first compound 0.1 µM
  relative viability: 0.348
PC-14; first compound 0.3162 µM
  relative viability: 0.256
PC-14; first compound 1 µM
  relative viability: 0.299
NCI-H1734; first compound 0.01 µM
  relative viability: 0.974
NCI-H1734; first compound 0.03162 µM
  relative viability: 1.16
NCI-H1734; first compound 0.1 µM
  relative viability: 1.13
NCI-H1734; first compound 0.3162 µM
  relative viability: 0.946
NCI-H1734; first compound 1 µM
  relative viability: 0.67
COR-L23; first compound 0.01 µM
  relative viability: 1.16
COR-L23; first compound 0.03162 µM
  relative viability: 1.06
COR-L23; first compound 0.1 µM
  relative viability: 0.953
COR-L23; first compound 0.3162 µM
  relative viability: 0.729
COR-L23; first compound 1 µM
  relative viability: 0.131
SW 1573; first compound 0.01 µM
  relative viability: 1.29
SW 1573; first compound 0.03162 µM
  relative viability: 1.23
SW 1573; first compound 0.1 µM
  relative viability: 1.16
SW 1573; first compound 0.3162 µM
  relative viability: 1.24
SW 1573; first compound 1 µM
  relative viability: 1.12
NCI-H1355; first compound 0.01 µM
  relative viability: 1
NCI-H1355; first compound 0.03162 µM
  relative viability: 0.993
NCI-H1355; first compound 0.1 µM
  relative viability: 1.01
NCI-H1355; first compound 0.3162 µM
  relative viability: 1.02
NCI-H1355; first compound 1 µM
  relative viability: 0.719
NCI-H661; first compound 0.01 µM
  relative viability: 0.6
NCI-H661; first compound 0.03162 µM
  relative viability: 0.546
NCI-H661; first compound 0.1 µM
  relative viability: 0.512
NCI-H661; first compound 0.3162 µM
  relative viability: 0.405
NCI-H661; first compound 1 µM
  relative viability: 0.28
NCI-H322M; first compound 0.01 µM
  relative viability: 0.627
NCI-H322M; first compound 0.03162 µM
  relative viability: 0.675
NCI-H322M; first compound 0.1 µM
  relative viability: 0.532
NCI-H322M; first compound 0.3162 µM
  relative viability: 0.535
NCI-H322M; first compound 1 µM
  relative viability: 0.456
H3255; first compound 0.01 µM
  relative viability: 0.316
H3255; first compound 0.03162 µM
  relative viability: 0.256
H3255; first compound 0.1 µM
  relative viability: 0.244
H3255; first compound 0.3162 µM
  relative viability: 0.264
H3255; first compound 1 µM
  relative viability: 0.244
ABC-1; first compound 0.01 µM
  relative viability: 1.46
ABC-1; first compound 0.03162 µM
  relative viability: 1.33
ABC-1; first compound 0.1 µM
  relative viability: 0.983
ABC-1; first compound 0.3162 µM
  relative viability: 1.2
ABC-1; first compound 1 µM
  relative viability: 0.981
NCI-H2405; first compound 0.01 µM
  relative viability: 1.11
NCI-H2405; first compound 0.03162 µM
  relative viability: 1.41
NCI-H2405; first compound 0.1 µM
  relative viability: 0.998
NCI-H2405; first compound 0.3162 µM
  relative viability: 1.01
NCI-H2405; first compound 1 µM
  relative viability: 0.422
NCI-H2228; first compound 0.01 µM
  relative viability: 1.28
NCI-H2228; first compound 0.03162 µM
  relative viability: 1.46
NCI-H2228; first compound 0.1 µM
  relative viability: 1.22
NCI-H2228; first compound 0.3162 µM
  relative viability: 0.34
NCI-H2228; first compound 1 µM
  relative viability: 0.231
